Test results as given in publication PMC12750388, “Coumarin-1,2,3-Triazole Conjugates as Molecular Scaffolds for the Selective Induction of ROS-Driven Apoptosis in Cancer Cells in the Development of Pyruvate Kinase M2 Inhibitors” (ACS Omega, 2025).
“And” between values parts separate entries of the source, which are not always exact repeats. Identical values can stand only once.

Experiments:
HCT116 = experiment: MTT cell viability assay, HCT116; format: cell-based, human
B16–F10 = experiment: MTT cell viability assay, B16–F10; format: cell-based, murine
SCC-9 cells = experiment: ROS-Glo H2O2 assay; format: cell-based, human; conditions: SCC-9, 2 × IC50, 12 and 24 h
Description: The production of reactive oxygen species (ROS) was assessed by the detection of hydrogen peroxide (H2O2) using the ROS-Glo H2O2 assay kit (Promega Corporation, Madison, WI, USA; G8820). […] A plate with wells without cells was used as a control. Cells and cell-free wells remained in treatment at times of interest, and 2 h before completion of the times, well volumes were removed to reduce to 40 μL per well. Then the positive control of menadione (Sigma-Aldrich Co., St. Louis, MO, USA), a polycyclic aromatic ketone based on 1,4-naphthoquinone, was used to treat its respective well, and H2O2 substrate from the kit was added for all treatments, followed by the incubation of the plate for the remaining 2 h. Then the detection solution was added, and the plates remained at room temperature for 20 min, following the reading in the TD 20/20 luminometer (Turner Designs, Sunnyvale, CA, USA). The reading of bioluminescence detected is indicated as arbitrary units (a.u.). Additionally, the cell viability was assessed through pretreatment of cells with 10 mM N-acetyl-L-cysteine (NAC) (Sigma-Aldrich Co., St. Louis, MO, USA) for 2 h. […] At the end of the time, the MTT cell viability assay was performed.

SCC-4 = experiment: MTT cell viability assay, SCC-4; format: cell-based, human
Description: The viability of SCC cell lines and primary human fibroblast cells was evaluated using the MTT assay to determine half maximal inhibitory concentration (IC50). Briefly, cells were grown in triplicate in 96-well plates (5 × 10^3 cells/well) until confluence. Then the medium was removed, fresh medium was added, and the cells were returned to the incubator in the presence of different compounds. DMSO at the same concentrations was used as a 100% cell viability control. After 48 h, cells were incubated with 5 mg/mL MTT reagent (3-(4,5-dimethyl-2-thiazolyl)-2,5-diphenyl-2-H-tetrazolium bromide) (Sigma-Aldrich Co., St. Louis, MO, USA) for 3.5 h. After that, formazan crystals were dissolved in MTT solvent solution (DMSO/methanol 1:1 v/v), and the absorbance at 560 nm was evaluated using an EPOCH microplate spectrophotometer (BioTek Instruments, Winooski, VT, USA) with the background absorbance at 670 nm subtracted. Each of the 12 compounds (7a–7l) was tested at six different concentrations, ranging from 6.25 to 200 μM in cancer and normal cell lines. Control (carboplatin) was tested at six different concentrations ranging from 25 μM to 800 μM in cancer cells and from 50 μM to 1600 μM in normal cells.
Half-maximal inhibitory concentration (IC50) values were obtained from the MTT assay of at least three independent replicates through nonlinear regression analysis using GraphPad Prism 5.0 software (Intuitive Software for Science, San Diego, CA, USA). Data were presented as means ± standard deviation (SD). A log dose–response curve (inhibitor vs response) using the least-squares method was used to determine the IC50 and SD from the data. The selectivity index (SI) was calculated as the ratio between the IC50 in normal cells and the IC50 in cancer cells, obtained by dividing the IC50 of normal cells by the IC50 of cancer cells.

PKM2 = target: T1, PKM2 (Homo sapiens, UniProt P14618); experiment: LDH-coupled Pyruvate Kinase M2 activity assay; format: biochemical
T1 construct: purchased Sigma-Aldrich Co., St. Louis, MO, USA
T1 sequence (P14618 whole entry): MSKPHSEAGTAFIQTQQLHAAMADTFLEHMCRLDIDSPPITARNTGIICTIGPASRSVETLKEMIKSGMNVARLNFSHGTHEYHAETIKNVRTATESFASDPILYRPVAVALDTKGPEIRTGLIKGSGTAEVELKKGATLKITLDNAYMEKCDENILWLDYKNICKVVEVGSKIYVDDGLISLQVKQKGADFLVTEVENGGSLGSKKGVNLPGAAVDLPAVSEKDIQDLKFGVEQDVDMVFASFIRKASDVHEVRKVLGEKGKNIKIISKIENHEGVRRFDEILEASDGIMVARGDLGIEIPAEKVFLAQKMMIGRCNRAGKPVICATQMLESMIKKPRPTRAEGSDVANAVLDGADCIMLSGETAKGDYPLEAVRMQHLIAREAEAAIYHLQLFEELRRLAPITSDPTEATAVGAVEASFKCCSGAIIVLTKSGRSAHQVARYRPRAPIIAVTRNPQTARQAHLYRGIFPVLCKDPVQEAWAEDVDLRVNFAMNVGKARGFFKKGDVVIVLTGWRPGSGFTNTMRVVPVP
Description: LDH-coupled Pyruvate Kinase M2 (PKM2) activity assay was performed according to published protocols. For the assay, a pH 7.5 buffer solution composed of 50 mM Tris, 100 mM KCl, and 10 mM MgCl2 was prepared, to which 30 ng of human recombinant PKM2 (Sigma-Aldrich Co., St. Louis, MO, USA), 0.6 mM adenosine diphosphate (ADP), 0.5 mM phosphoenolpyruvate (PEP), 180 μM NADH, 10 μM fructose 1,6-bisphosphate (FBP), and 8 units of LDH were added. PEP was added only right before measurement to start the reaction. The change in absorbance at 340 nm due to oxidation of NADH by LDH was measured from 0 to 30 min using an EPOCH microplate spectrophotometer (BioTek Instruments, Winooski, VT, USA). The activity of PK was defined as % in relation to the indicated control.

C57BL/6 mice = experiment: Acute toxicity assay in vivo; conditions: 14 days
Description: All experiments were performed in accordance with the Brazilian guidelines and regulations. Dosing and analysis were performed according to 423 OECD guidelines and reviewed by ref. . An experimental approach was conducted using experimental groups (n = 3) in which each group received a single dose of 7f (100, 200, or 400 mg/kg). […] Control group animals received only 3% DMSO in PBS vehicle. Animals were examined every day, twice a day, for mortality and morbidity for 14 days, and all animals were sacrificed by cervical dislocation. The animals’ body weight and average food consumption were measured every 7 days. […]
increased rear arching, and mobility impairment. The necropsy included an examination of the external characteristics of the carcass; external body orifices; the abdominal, thoracic, and cranial cavities; organs/tissues of liver, thymus, right kidney, right testicle, heart, and lung.
Animals upon euthanasia had their organs evaluated for signs of toxicity or morphological […]
are presented: changes in body weight and food intake, signs of morbidity, possible mortality, and macroscopic alterations in collected organs. Each experimental group consisted of three C57BL/6 mice. The animals were monitored for 14 days, after which they were euthanized and necropsied. […]

[1] = versus human gingival fibroblast
[2] = 100 mg/kg single intraperitoneal dose
[3] = 200 mg/kg single intraperitoneal dose
[4] = 400 mg/kg single intraperitoneal dose

Compound: O=C1C=C(OCc2cn(CCCOc3cc(=O)oc4ccccc34)nn2)C(=O)c2ccccc21 [Compound 7f, 2-((1-(3-((2-Oxo-2H-chromen-4-yl)oxy)propyl)-1H-1,2,3-triazol-4-yl)methoxy)naphthalene-1,4-dione]
- IC50 (HCT116; HCT-116, MTT, human colon carcinoma): 6.72 µM
- SI HCT116 (HCT116; [1]): 3.38
- IC50 (B16–F10; Mus musculus, B16-F10, MTT, murine melanoma): 4.93 µM
- SI B16–F10 (B16–F10; [1]): 4.61
- production of hydrogen peroxide (H2O2) / ROS (SCC-9 cells): significant increase in ROS after 12 and 24 h
- IC50 (SCC-4; Homo sapiens, SCC-4, MTT, 48 h): 7.93 µM
- SI SCC-4 (SCC-4; IC50 human gingival fibroblast / IC50 SCC-4): 2.87
- PKM2 % of activity relative to control (PKM2; 0.8 µM 7f, experimental replicates 1-5, LDH-coupled assay, vs DMSO): 96.14% and 81.36% and 72.11% and 97.25% and 76.4557%
- PKM2 % of activity relative to control (PKM2; 4 µM 7f, experimental replicates 1-5, LDH-coupled assay, vs DMSO): 88.82% and 107.0205% and 91.86% and 99.18%
- remaining activity at 4 µM (PKM2; 4 µM 7f, experimental replicates 1-5, LDH-coupled assay, vs DMSO, read-out: PKM2 % of activity relative to control): 96.2%
- PKM2 % of activity relative to control (PKM2; 20 µM 7f, experimental replicates 1-5, LDH-coupled assay, vs DMSO): 87.42% and 68.0203% and 47.4026% and 85.71% and 68.03%
- PKM2 % of activity relative to control (PKM2; 100 µM 7f, experimental replicates 1-5, LDH-coupled assay, vs DMSO): 42.39% and 13.86% and 46.13% and 34.17% and 45.14%
- IC50 (PKM2; LDH-coupled assay, 0.8 μM to 100 μM, 30 min): 55.1 µM
- Change in body weight (C57BL/6 mice; [2]): Absent
- Change in food consumption (C57BL/6 mice; [2]): Absent
- Gross Necropsy (C57BL/6 mice; [2]): Absent
- Morbidity (C57BL/6 mice; [2]): Absent
- Change in body weight (C57BL/6 mice; [3]): Absent
- Change in food consumption (C57BL/6 mice; [3]): Absent
- Gross Necropsy (C57BL/6 mice; [3]): Absent
- Morbidity (C57BL/6 mice; [3]): Absent
- Change in body weight (C57BL/6 mice; [4]): Absent
- Change in food consumption (C57BL/6 mice; [4]): Absent
- Gross Necropsy (C57BL/6 mice; [4]): Absent
- Morbidity (C57BL/6 mice; [4]): Absent
